{"source": "patent US6709849B2", "about": "“Dietary supplements for regulating male hormone” (priority 2002, dated 2004)", "key": {"[1]": {"test_system": "castrated male Wistar rats", "test": "Growth of prostate, seminal vesicle and glandulae preputiales in castrated Wistar rats (wet weight)", "assay_type": "in vivo, rat", "settings": "daily for 14 days, sacrificed 24 hours after last administration, yeast 3 ml daily intragastric, testosterone propionate 25 mg/kg daily i.m.", "description": "(§1) The activated yeast compositions used in the following examples were prepared as described above, using Saccharomyces cerevisiae Hansen AS2.504, cultured in the presence of an alternating electric field having the electric field frequency and field strength exemplified in the parentheses following the recommended ranges listed in Section IV, supra. Control (i.e., untreated) yeast compositions were those prepared in the same manner as described in Section VI, supra, except that the yeast cells were cultured in the absence of EMFs. Unless otherwise indicated, the yeast compositions and the corresponding controls were administered to the animals by intragastric feeding.\nTo test the ability of the EMF-treated AS2.504 cells to regulate male hormone, twenty-four healthy male Wistar rats (about 50 g body weight, 20 days old) were selected. Under ether anesthesia, both testes of each rat were removed under sterile conditions. The castrated rats were then randomly divided into four equal groups. The activated yeast composition was administered to Group A rats at a dose of 3 ml daily continuously for 14 consecutive days. […]\nEach rat was sacrificed 24 hours after the last administration of the composition of interest. […] The wet weight of the prostate and seminal vesicle was recorded (Table 2). […] The wet weight of the removed glandulae preputiales was also recorded (Table 2)."}, "[2]": {"test_system": "castrated male NIH-grade mice", "test": "Growth of seminal vesicle and glandulae preputiales in castrated mice (weight)", "assay_type": "in vivo, mouse", "settings": "7 days, yeast 1.5 ml/dose twice daily intragastric, testosterone propionate 20 mg/kg i.m. every other day", "description": "as §1\nForty male NIH-grade castrated mice (about 25-30 g each) were randomly divided into four equal groups. Three days after castration, the activated yeast composition was administered to each of the Group A mice twice daily at 1.5 ml/dose for seven consecutive days. The control yeast composition was administered to each of the Group B mice at the same daily dosage for seven consecutive days. Testosterone propionate was injected intramuscularly to each of the Group C mice in the buttocks at 20 mg/kg every other day, i.e., on days 1, 3, 5, and 7, for a total of 7 days. Saline was orally administered to each of the Group D […] twice daily at 1.5 ml/dose for seven consecutive days. […]"}}}
{"smiles": "CCC(=O)O[C@H]1CC[C@H]2[C@@H]3CCC4=CC(=O)CC[C@]4(C)[C@H]3CC[C@]12C", "note": "[testosterone propionate, Testosterone propionate]", "values": [{"measurement": "Glandulae Preputiales (wet weight)", "setting": "[1]", "result": "98.6 ± 15.8"}, {"measurement": "Prostate and Seminal Vesicle (wet weight)", "setting": "[1]", "result": "91.5 ± 12.8"}, {"measurement": "Glandulae Preputiales (mg/100 g body weight)", "setting": "[2]", "result": "323.7 ± 50.6", "unit": "mg/100 g body weight"}, {"measurement": "Seminal Vesicle (mg/100 g body weight)", "setting": "[2]", "result": "268.2 ± 56.2", "unit": "mg/100 g body weight"}]}
